According to US20220229068A1, “DETECTION OF PROTEIN TO PROTEIN INTERACTIONS” (THE GOVERNING COUNCIL OF THE UNIVERSITY OF TORONTO, priority 2019, published 2022):

System: MAPK1/ELK1 interaction
Assay: SIMPL kinase/substrate interactions (ELISA and Western blot)
Format: cell-based, human
Conditions: kinase-IN / substrate-IC, stimulation
Protocol: Cell culture and treatment. HEK 293 and HeLa cell lines were generous gifts from Dr. J. Moffat. HEK 293 Flp-In T-Rex cell line was a generous gift from Dr. A. C. Gingras. These cells were grown in DMEM supplemented with 10% fetal calf serum (Life Technologies). PC9 cell line was a generous gift from Dr. P. Jannes and they were grown in RPMI 1640 medium supplemented with 10% fetal calf serum. For ELISA assay, cells were seeded in 96 well (Sarstedt AG & Co) or 384 well plates (Greiner Bio-One) with 15,000 (96 well) or 5,000 (384 well) cells per well. Cells were transfected with various plasmids with polyethylenimine (PEI) Max (Polysciences). Expression in HEK 293 Flp-In T-Rex cells was induced by treating the cells with tetracycline (1 μg/ml) for 6-16 hrs. […] Stable cell lines were created according to the manual of Flp-In T-REx (Invitrogen). Briefly, plasmid containing both bait and prey DNA and pOG44 plasmid (1:10 ratio) were cotransfected into HEK 293 Flp-In T-Rex cells.
Western blot analysis and immunoprecipitation. Cells were lysed in buffer H (Triton X 100 1%, β-glycerophosphate pH7.3 50 mM, EGTA 1.5 mM, EDTA 1 mM, orthovanadate 0.1 mM, DTT 1 mM supplemented with protease inhibitors (Roche)). […]
ELISA. […] The plate was washed 3 times with PBST followed by chemiluminescence reading using SuperSignal ELISA Pico substrate (ThermoFisher). […]

Tetradecanoylphorbol acetate [TPA]
MAPK1/ELK1 interaction after MAPK1 activation: enhanced MAPK1/ELK1 interaction
